Measurements from article PMC9742383, “From tryptamine to the discovery of efficient multi-target directed ligands against cholinesterase-associated neurodegenerative disorders” (Frontiers in Pharmacology, 2022).

target: T1, AChE (Electrophorus electricus, UniProt O42275); assay: Ellman colorimetric assay; assay type: biochemical; settings: ATCI substrate, […] min preincubation […] °C, pH […]; read-out: IC50 ± SD ^a / AChE ^a
T1 construct: native enzyme, Type V-S lyophilized powder, Sigma-Aldrich
T1 sequence (O42275 24-633): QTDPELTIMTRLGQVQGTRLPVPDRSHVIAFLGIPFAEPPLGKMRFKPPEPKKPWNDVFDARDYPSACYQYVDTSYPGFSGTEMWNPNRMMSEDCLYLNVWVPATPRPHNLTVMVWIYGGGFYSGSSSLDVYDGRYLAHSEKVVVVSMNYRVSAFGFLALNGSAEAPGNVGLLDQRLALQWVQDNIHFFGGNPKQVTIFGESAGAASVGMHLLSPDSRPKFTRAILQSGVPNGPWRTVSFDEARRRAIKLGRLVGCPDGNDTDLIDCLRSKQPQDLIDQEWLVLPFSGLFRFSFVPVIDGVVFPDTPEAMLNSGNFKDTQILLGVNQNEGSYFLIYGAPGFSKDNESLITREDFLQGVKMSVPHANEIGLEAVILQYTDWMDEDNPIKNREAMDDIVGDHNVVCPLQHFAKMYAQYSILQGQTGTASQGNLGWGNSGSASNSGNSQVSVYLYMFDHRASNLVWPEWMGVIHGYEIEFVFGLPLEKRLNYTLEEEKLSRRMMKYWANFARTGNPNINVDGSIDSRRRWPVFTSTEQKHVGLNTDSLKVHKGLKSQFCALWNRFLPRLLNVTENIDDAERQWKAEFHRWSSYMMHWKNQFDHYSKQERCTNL

SMILES	IC50 [µM]
CCCCCCCNC(=O)Oc1ccc2[nH]cc(CCN)c2c1 [4e, 3-(2-aminoethyl)-1H-indol-5-yl heptylcarbamate]	> 100

same assay, conditions: read-out: IC50 ± SD / AChE ^a

SMILES	IC50 [µM]
CCCCCNC(=O)Oc1ccc2[nH]cc(CCN(Cc3ccccc3)Cc3ccccc3)c2c1 [2c, 3-(2-(dibenzylamino)ethyl)-1H-indol-5-yl pentylcarbamate]	> 100
CCCCCCCNC(=O)Oc1ccc2[nH]cc(CCN(Cc3ccccc3)Cc3ccccc3)c2c1 [2e, 3-(2-(dibenzylamino)ethyl)-1H-indol-5-yl heptylcarbamate]	> 100
O=C(NC1CC1)Oc1ccc2[nH]cc(CCN(Cc3ccccc3)Cc3ccccc3)c2c1 [2f, 3-(2-(dibenzylamino)ethyl)-1H-indol-5-yl cyclopropylcarbamate]	> 100
O=C(NC1CCCCC1)Oc1ccc2[nH]cc(CCN(Cc3ccccc3)Cc3ccccc3)c2c1 [2h, 3-(2-(dibenzylamino)ethyl)-1H-indol-5-yl cyclohexylcarbamate]	> 100
CN(C)C(=O)Oc1ccc2[nH]cc(CCN(Cc3ccccc3)Cc3ccccc3)c2c1 [2j, 3-(2-(dibenzylamino)ethyl)-1H-indol-5-yl dimethylcarbamate]	> 100
CCCCN(CCCC)C(=O)Oc1ccc2[nH]cc(CCN(Cc3ccccc3)Cc3ccccc3)c2c1 [2m, 3-(2-(dibenzylamino)ethyl)-1H-indol-5-yl dibutylcarbamate]	> 100
CN(C(=O)Oc1ccc2[nH]cc(CCN(Cc3ccccc3)Cc3ccccc3)c2c1)c1ccccc1 [2p, 3-(2-(dibenzylamino)ethyl)-1H-indol-5-yl methyl(phenyl)carbamate]	> 100

test system: not listed separately; assay: in vitro; parameters: species or system LO2, HepG2; MTT cytotoxicity, absorbance at 570 nm; settings: human, sh-sy5y; read-out: ^a IC50 ± SD (μM) / SH-SY5Y
Protocol: (§1) The cell lines present in this study were purchased from the China Center for Type Collection (CCTCC, China). For cytotoxicity assay, HT-22, BV2, SH-SY5Y, HepG2, and LO2 cells were incubated in 96-well plates at the density of 5 × 10³ per well. After incubation for 12 h at 37°C, the tested compounds with the required concentrations were added to the corresponding wells and continuously incubated for 24 h at 37°C. Then, the prepared MTT (3-[4,5-dimethyl-2-thiazolyl]-2,5-diphenyl-2H-tetrazolium bromide) solution was added to each well and co-incubated for another 4 h at 37°C. Then, the supernatant was removed, and 100 μl DMSO was added to each well. The OD value of each well was detected at 570 nm using a microplate reader (Bio-Rad Laboratories, CA, United States). The IC50 values were calculated using IBM SPSS Statistics 25.0 software. All experiments were performed in triplicate, and the results were shown as the mean ± SD. In order to further evaluate the applicability of the compounds with dibenzyl groups for neurological diseases, we also tested the cytotoxicity of the selected compounds (2f, 2h, 2j, 2m, 2o-2r, 2t, and 2u) bearing little toxicity on HT-22 cells, microglia cell line BV2, and human neuroblastoma cell line SH-SY5Y, which are widely used in the study of neurological diseases. […] In view of some carbamate-based ChE inhibitors reported to be hepatotoxic, we further performed the preliminary evaluation of the hepatotoxicity of the selected compounds on human normal liver cell line LO2 and human hepatocellular carcinoma cell line HepG2.

SMILES	CC50 at 24 h [µM]
O=C(NC1CCCCC1)Oc1ccc2[nH]cc(CCN(Cc3ccccc3)Cc3ccccc3)c2c1 [2h, 3-(2-(dibenzylamino)ethyl)-1H-indol-5-yl cyclohexylcarbamate]	> 100
CN(C)C(=O)Oc1ccc2[nH]cc(CCN(Cc3ccccc3)Cc3ccccc3)c2c1 [2j, 3-(2-(dibenzylamino)ethyl)-1H-indol-5-yl dimethylcarbamate]	> 100
CCCCN(CCCC)C(=O)Oc1ccc2[nH]cc(CCN(Cc3ccccc3)Cc3ccccc3)c2c1 [2m, 3-(2-(dibenzylamino)ethyl)-1H-indol-5-yl dibutylcarbamate]	> 100
CN(C(=O)Oc1ccc2[nH]cc(CCN(Cc3ccccc3)Cc3ccccc3)c2c1)c1ccccc1 [2p, 3-(2-(dibenzylamino)ethyl)-1H-indol-5-yl methyl(phenyl)carbamate]	> 100

test system: not listed separately; assay: in vitro; parameters: species or system SH-SY5Y, LO2; MTT cytotoxicity, absorbance at 570 nm; settings: human, hepg2; read-out: ^a IC50 ± SD (μM) / HepG2
Protocol: as §1

SMILES	CC50 at 24 h [µM]
CN(C)C(=O)Oc1ccc2[nH]cc(CCN(Cc3ccccc3)Cc3ccccc3)c2c1 [2j, 3-(2-(dibenzylamino)ethyl)-1H-indol-5-yl dimethylcarbamate]	> 100
CCCCN(CCCC)C(=O)Oc1ccc2[nH]cc(CCN(Cc3ccccc3)Cc3ccccc3)c2c1 [2m, 3-(2-(dibenzylamino)ethyl)-1H-indol-5-yl dibutylcarbamate]	> 100

same assay, conditions: human, hepg2 cells; read-out: ^a IC50 ± SD (μM) / HepG2

SMILES	CC50 at 24 h [µM]
CN(C(=O)Oc1ccc2[nH]cc(CCN(Cc3ccccc3)Cc3ccccc3)c2c1)c1ccccc1 [2p, 3-(2-(dibenzylamino)ethyl)-1H-indol-5-yl methyl(phenyl)carbamate]	> 100

target: T2, BuChE (Equus caballus, UniProt P81908); assay: Ellman colorimetric assay; assay type: biochemical; parameters: gene BCHE; native enzyme from equine serum, purchased from Sigma-Aldrich; settings: BTCI substrate, […] min preincubation […] °C, pH […]; pseudo-irreversible carbamate, covalent; read-out: IC50 ± SD ^a / BuChE ^a
T2 sequence (P81908 whole entry): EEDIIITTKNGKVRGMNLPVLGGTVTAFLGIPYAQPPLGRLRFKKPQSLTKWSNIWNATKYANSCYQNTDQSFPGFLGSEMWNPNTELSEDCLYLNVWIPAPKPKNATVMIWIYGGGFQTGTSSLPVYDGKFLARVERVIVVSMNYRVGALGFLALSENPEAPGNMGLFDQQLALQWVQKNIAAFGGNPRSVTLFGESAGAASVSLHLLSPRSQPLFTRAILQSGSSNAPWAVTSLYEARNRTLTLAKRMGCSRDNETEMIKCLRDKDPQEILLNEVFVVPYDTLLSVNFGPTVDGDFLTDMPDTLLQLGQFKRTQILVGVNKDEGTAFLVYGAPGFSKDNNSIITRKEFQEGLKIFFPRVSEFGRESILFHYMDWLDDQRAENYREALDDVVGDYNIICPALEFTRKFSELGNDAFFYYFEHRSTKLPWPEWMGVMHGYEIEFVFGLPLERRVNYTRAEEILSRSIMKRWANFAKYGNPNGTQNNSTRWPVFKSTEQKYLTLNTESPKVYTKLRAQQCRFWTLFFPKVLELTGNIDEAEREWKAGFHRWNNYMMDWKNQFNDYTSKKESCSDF

SMILES	IC50 [µM]
CCCCCCCNC(=O)Oc1ccc2[nH]cc(CCN)c2c1 [4e, 3-(2-aminoethyl)-1H-indol-5-yl heptylcarbamate]	0.0101 ± 0.00083

same assay, conditions: read-out: IC50 ± SD / BuChE ^a

SMILES	IC50 [µM]
CCCCCNC(=O)Oc1ccc2[nH]cc(CCN(Cc3ccccc3)Cc3ccccc3)c2c1 [2c, 3-(2-(dibenzylamino)ethyl)-1H-indol-5-yl pentylcarbamate]	0.0021 ± 0.00014
CCCCCCCNC(=O)Oc1ccc2[nH]cc(CCN(Cc3ccccc3)Cc3ccccc3)c2c1 [2e, 3-(2-(dibenzylamino)ethyl)-1H-indol-5-yl heptylcarbamate]	0.00142 ± 4e-06
O=C(NC1CC1)Oc1ccc2[nH]cc(CCN(Cc3ccccc3)Cc3ccccc3)c2c1 [2f, 3-(2-(dibenzylamino)ethyl)-1H-indol-5-yl cyclopropylcarbamate]	0.00875 ± 0.00023
O=C(NC1CCCCC1)Oc1ccc2[nH]cc(CCN(Cc3ccccc3)Cc3ccccc3)c2c1 [2h, 3-(2-(dibenzylamino)ethyl)-1H-indol-5-yl cyclohexylcarbamate]	0.016 ± 0.00032
CN(C)C(=O)Oc1ccc2[nH]cc(CCN(Cc3ccccc3)Cc3ccccc3)c2c1 [2j, 3-(2-(dibenzylamino)ethyl)-1H-indol-5-yl dimethylcarbamate]	0.00677 ± 0.00027
CCCCN(CCCC)C(=O)Oc1ccc2[nH]cc(CCN(Cc3ccccc3)Cc3ccccc3)c2c1 [2m, 3-(2-(dibenzylamino)ethyl)-1H-indol-5-yl dibutylcarbamate]	0.0138 ± 0.00067
CN(C(=O)Oc1ccc2[nH]cc(CCN(Cc3ccccc3)Cc3ccccc3)c2c1)c1ccccc1 [2p, 3-(2-(dibenzylamino)ethyl)-1H-indol-5-yl methyl(phenyl)carbamate]	0.0189 ± 0.00134

test system: not listed separately; assay: in vitro; parameters: MTT cytotoxicity, absorbance at 570 nm, HT-22 mouse hippocampal neuronal cells; settings: mouse, ht-22; read-out: IC50 ± SD / HT-22 ^a
Protocol: The cell lines present in this study were purchased from the China Center for Type Collection (CCTCC, China). For cytotoxicity assay, HT-22, BV2, SH-SY5Y, HepG2, and LO2 cells were incubated in 96-well plates at the density of 5 × 10³ per well. After incubation for 12 h at 37°C, the tested compounds with the required concentrations were added to the corresponding wells and continuously incubated for 24 h at 37°C. Then, the prepared MTT (3-[4,5-dimethyl-2-thiazolyl]-2,5-diphenyl-2H-tetrazolium bromide) solution was added to each well and co-incubated for another 4 h at 37°C. Then, the supernatant was removed, and 100 μl DMSO was added to each well. The OD value of each well was detected at 570 nm using a microplate reader (Bio-Rad Laboratories, CA, United States). The IC50 values were calculated using IBM SPSS Statistics 25.0 software. All experiments were performed in triplicate, and the results were shown as the mean ± SD. In order to explore the applicability of the synthesized CTDs in neurological diseases, the neuronal cytotoxicity of the synthesized compounds was evaluated on mouse hippocampal neuronal cell line HT-22. […] In view of these CTDs endowed strong inhibition efficacy on BuChE, we preliminarily evaluated their safety range by comparing their IC50 values on cytotoxicity and BuChE inhibitory activity. […] Therefore, the series of compounds with dibenzyl groups, especially compounds bearing ring carbon alkyl chains (2f-2h) and tertiary amine residues (2j-2u) with little cytotoxicity on HT-22, can be considered as potential lead building blocks for further structure optimization to develop novel effective agents against neurological diseases.

SMILES	CC50 at 24 h [µM]
CCCCCNC(=O)Oc1ccc2[nH]cc(CCN(Cc3ccccc3)Cc3ccccc3)c2c1 [2c, 3-(2-(dibenzylamino)ethyl)-1H-indol-5-yl pentylcarbamate]	37.47 ± 0.23
CCCCCCCNC(=O)Oc1ccc2[nH]cc(CCN(Cc3ccccc3)Cc3ccccc3)c2c1 [2e, 3-(2-(dibenzylamino)ethyl)-1H-indol-5-yl heptylcarbamate]	35.6 ± 2.45
O=C(NC1CC1)Oc1ccc2[nH]cc(CCN(Cc3ccccc3)Cc3ccccc3)c2c1 [2f, 3-(2-(dibenzylamino)ethyl)-1H-indol-5-yl cyclopropylcarbamate]	60.2 ± 3.85
O=C(NC1CCCCC1)Oc1ccc2[nH]cc(CCN(Cc3ccccc3)Cc3ccccc3)c2c1 [2h, 3-(2-(dibenzylamino)ethyl)-1H-indol-5-yl cyclohexylcarbamate]	74.2 ± 1.5
CN(C)C(=O)Oc1ccc2[nH]cc(CCN(Cc3ccccc3)Cc3ccccc3)c2c1 [2j, 3-(2-(dibenzylamino)ethyl)-1H-indol-5-yl dimethylcarbamate]	> 100
CCCCN(CCCC)C(=O)Oc1ccc2[nH]cc(CCN(Cc3ccccc3)Cc3ccccc3)c2c1 [2m, 3-(2-(dibenzylamino)ethyl)-1H-indol-5-yl dibutylcarbamate]	65.28 ± 0.09
CN(C(=O)Oc1ccc2[nH]cc(CCN(Cc3ccccc3)Cc3ccccc3)c2c1)c1ccccc1 [2p, 3-(2-(dibenzylamino)ethyl)-1H-indol-5-yl methyl(phenyl)carbamate]	> 100

same assay, conditions: mouse, ht-22 hippocampal neuronal cells; read-out: IC50 ± SD / HT-22 ^a

SMILES	CC50 at 24 h [µM]
CCCCCCCNC(=O)Oc1ccc2[nH]cc(CCN)c2c1 [4e, 3-(2-aminoethyl)-1H-indol-5-yl heptylcarbamate]	26.1 ± 2.29

target: T2, BuChE; assay: time-dependent Ellman assay, kobs analysis; parameters: gene BCHE; settings: read-out: kc; equilibrium constant of reversible step before carbamylation; covalent

SMILES	KI (inactivation) [µM]
CCCCCNC(=O)Oc1ccc2[nH]cc(CCN(Cc3ccccc3)Cc3ccccc3)c2c1 [2c, 3-(2-(dibenzylamino)ethyl)-1H-indol-5-yl pentylcarbamate]	0.00705
CCCCCCCNC(=O)Oc1ccc2[nH]cc(CCN(Cc3ccccc3)Cc3ccccc3)c2c1 [2e, 3-(2-(dibenzylamino)ethyl)-1H-indol-5-yl heptylcarbamate]	0.00255
O=C(NC1CC1)Oc1ccc2[nH]cc(CCN(Cc3ccccc3)Cc3ccccc3)c2c1 [2f, 3-(2-(dibenzylamino)ethyl)-1H-indol-5-yl cyclopropylcarbamate]	0.00159
CCCCCCCNC(=O)Oc1ccc2[nH]cc(CCN)c2c1 [4e, 3-(2-aminoethyl)-1H-indol-5-yl heptylcarbamate]	0.00302

test system: not listed separately; assay: in vitro; parameters: species or system SH-SY5Y, HepG2; MTT cytotoxicity, absorbance at 570 nm; settings: human, lo2 cells; read-out: ^a IC50 ± SD (μM) / LO2
Protocol: as §1

SMILES	CC50 at 24 h [µM]
O=C(NC1CCCCC1)Oc1ccc2[nH]cc(CCN(Cc3ccccc3)Cc3ccccc3)c2c1 [2h, 3-(2-(dibenzylamino)ethyl)-1H-indol-5-yl cyclohexylcarbamate]	> 100
CN(C)C(=O)Oc1ccc2[nH]cc(CCN(Cc3ccccc3)Cc3ccccc3)c2c1 [2j, 3-(2-(dibenzylamino)ethyl)-1H-indol-5-yl dimethylcarbamate]	> 100
CCCCN(CCCC)C(=O)Oc1ccc2[nH]cc(CCN(Cc3ccccc3)Cc3ccccc3)c2c1 [2m, 3-(2-(dibenzylamino)ethyl)-1H-indol-5-yl dibutylcarbamate]	> 100
CN(C(=O)Oc1ccc2[nH]cc(CCN(Cc3ccccc3)Cc3ccccc3)c2c1)c1ccccc1 [2p, 3-(2-(dibenzylamino)ethyl)-1H-indol-5-yl methyl(phenyl)carbamate]	> 100
